Earlier results on three molecules are cited in patent US8716506B2, “Xylitol esters and ethers applied as alternative emulsifiers, solvents, co-emulsifiers and preservative systems for pharmaceutical and cosmetic products” (priority 2008, dated 2014).

Molecules are shown by their SMILES.

The subject of one data set is Streptococcus pneumoniae. The settings on record: concentration of 5%.
The subject of another data set is S. pneumoniae. The following applies: concentration of 5%.
The next data set concerns Haemophilus influenzae. The settings on record: concentration of 5%.

As for `CC1(C)C(=O)N(CO)C(=O)N1CO` [DMDM hydantoin, 1,3-Dimethylo1-5,5-dimethyl hydantoin], the “volunteers with hypersensitivity in contact test” value (De Groot and collaborators) is 57%. `C=O` [formaldehyde, Formaldehyde (methanal)]: for the setting “clinical tests, even in concentrations of 30 ppm of free formaldehyde”, the “volunteers with contact hypersensitizing” value is listed as 1-9%. `OC[C@@H](O)[C@H](O)[C@@H](O)CO` [xylitol]: the growth inhibition entry with Streptococcus pneumoniae was “inhibited the growth”. In addition, the “adherence levels in epithelial nasopharyngeal cells” value with S. pneumoniae and in the data set on Haemophilus influenzae was “reduced the adherence levels” throughout.
